Reference: ChEMBL document CHEMBL1158851, “Friedelane triterpenoids from Maytenus macrocarpa” (J Nat Prod, 1998)

What was measured:
Assay type in all cases: functional, cell-based
HT-29 = assay: Cytotoxicity against human HT-29 cells
A549 = assay: Cytotoxicity against human A549 cells
SK-MEL-28 = assay: Cytotoxicity against human SK-MEL-28 cells
P388 = assay: Cytotoxicity against mouse P388 cells

Measured: IC50

CC(=O)OC[C@]12CCC(C)(C)C[C@H]1[C@]1(C)CC[C@@]3(C)[C@@H]4C(=O)C=C(OC(C)=O)[C@H](C)[C@@]4(C)CC[C@@H]3[C@@]1(C)CC2
> 10 µg/mL: all assays above

C[C@H]1C(=O)CC(=O)[C@@H]2[C@]1(C)CC[C@H]1[C@@]2(C)CC[C@@]2(C)[C@@H]3CC(C)(C)CC[C@]3(CO)CC[C@]12C
> 10 µg/mL: all assays above
